In the experiment the target is PAI-1 (Homo sapiens, UniProt P05121). Nature of the experiment: biochemical. To be noted: for inhibition at 100 µM: 100 μM (third part of Table 1); for inhibition at 50 µM: 50 μM (third part of Table 1).
Where [1] appears, read: 20 μM (third part of Table 1), read-out: Degree of inhibition in PAI chromogenic substrate assay.
Where [2] appears, read: read-out: Degree of inhibition in PAI chromogenic substrate assay.
Setting [3] is: PAI chromogenic substrate assay, read-out: IC50.

Structures can show the parent of a compound that is named as a salt. Where two headings read alike, the source gives them in different places.

As usually defined, the inhibition is the relative decrease from the control value, in per cent. As usually defined, the IC50 is the point on the concentration scale where inhibition reaches its midpoint.

Sequence of PAI-1 (P05121 24-402): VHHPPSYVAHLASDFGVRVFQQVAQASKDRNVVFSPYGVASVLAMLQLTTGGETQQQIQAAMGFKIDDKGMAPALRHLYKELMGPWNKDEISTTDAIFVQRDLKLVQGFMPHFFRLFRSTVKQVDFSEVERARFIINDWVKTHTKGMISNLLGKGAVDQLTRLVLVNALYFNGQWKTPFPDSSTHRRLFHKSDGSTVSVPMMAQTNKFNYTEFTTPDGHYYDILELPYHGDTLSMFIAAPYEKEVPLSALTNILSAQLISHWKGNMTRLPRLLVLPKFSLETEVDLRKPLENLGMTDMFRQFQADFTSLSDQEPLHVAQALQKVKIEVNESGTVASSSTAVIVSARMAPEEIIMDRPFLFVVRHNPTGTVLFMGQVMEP
Method: In this assay, a compound is incubated with PAI-1 prior to addition to the tPA assay system. Inhibition of PAI-1 results in the production of plasmin from plasminogen. In turn, plasmin cleaves the chromogenic substrate S2251 (Kabi Vitrum) producing pNA (p-nitroaniline) which is detected spectrophotometrically at 405 nm (K. Nilsson et al, Fibrinolysis (1987) 1, 163-168).
Compounds of formula (A) were tested in a PAI chromogenic substrate assay. In the assay (K.Nilsson, Fibrinolysis (1987) 1, 163-168) each compound was incubated with PAI-1 prior to addition to the tPA assay system. […] In turn, the plasmin cleaved the chromogenic substrate S2251 (Kabi-Vitrum) producing pNA (p-nitroaniline) which was detected spectrophotometrically at 405 nm.

On to `Cc1ccccc1/C=c1\[nH]c(=O)/c(=C/c2ccc(OCCCN(C)C)cc2)[nH]c1=O` [Compound 5186, (3Z,6Z)-6-(4-(3-Dimethylaminopropoxy)benzylidene)-3-(2-methylbenzylidene)-2,5-piperazinedione], for which the inhibition at 20 µM under setting [1] was determined as 10%. In addition, the inhibition at 100 µM under setting [2] was 46%.

Take `CN(C)CCCOc1ccc(/C=c2\[nH]c(=O)/c(=C/c3ccc(F)cc3)[nH]c2=O)cc1` [Compound 5365, (3Z,6Z)-3-(4-(3-Dimethylaminopropoxy)benzylidene)-6-(4-fluorobenzylidene)-2,5-piperazinedione]: under setting [3], the IC50 is 6.5 µM.

In the case of `CN(C)CCCOc1ccc(/C=c2\[nH]c(=O)/c(=C/c3ccc(C(=O)NCCCc4ccccc4)cc3)[nH]c2=O)cc1` [Compound 5346, N-(3-Phenylpropyl)-4-((3Z,6Z)-6-(4-(3-Dimethylaminopropoxy)benzylidene)-2,5-dioxo-3-piperazinylidene)methylbenzamide], the inhibition at 20 µM under setting [1] was 15%.

Turning to `CCN(CC)CCOc1ccc(/C=c2\[nH]c(=O)/c(=C/c3ccccc3)[nH]c2=O)cc1` [Compound 5065.HCl], under setting [1], the inhibition at 20 µM was 12%. Under setting [2], the inhibition at 50 µM was determined as 80% and the inhibition at 100 µM amounted to 85%.

The molecule `CN(C)CCCOc1ccc(/C=c2\[nH]c(=O)/c(=C/c3cc([N+](=O)[O-])cc([N+](=O)[O-])c3)[nH]c2=O)cc1` [Compound 5378, (3Z,6Z)-6-(4-(3-Dimethylaminopropoxy)benzylidene)-3-(3,5-dinitrobenzylidene)-2,5-piperazinedione] yielded an IC50 (IC50, PAI chromogenic substrate assay) of 20 µM. Besides, the inhibition at 20 µM under setting [2] is 50%.

As for `CN(C)CCCOc1ccc(/C=c2\[nH]c(=O)/c(=C/c3ccccc3[N+](=O)[O-])[nH]c2=O)cc1` [Compound 5210, (3Z,6Z)-6-(4-(3-Dimethylaminopropoxy)benzylidene)-3-(2-nitrobenzylidene)-2,5-piperazinedione], the half-inhibitory concentration (IC50) under setting [3] worked out at 67 µM.

On to `CN(C)CCCOc1ccc(/C=c2\[nH]c(=O)/c(=C/c3ccc([N+](=O)[O-])cc3)[nH]c2=O)cc1` [Compound 5228, (3Z,6Z)-3-(4-(3-dimethylaminopropoxy)benzylidene)-6-(4-nitrobenzylidene)-2,5-piperazinedione], for which, under setting [3], the half-maximal inhibitory concentration (IC50) came to 1.1 µM.

Regarding `CN(C)CCCOc1ccc(/C=c2\[nH]c(=O)/c(=C/c3ccc(C(=O)NCc4ccccc4)cc3)[nH]c2=O)cc1` [Compound 5344, N-Benzyl-4-((3Z,6Z)-6-(4-(3-Dimethylaminopropoxy)benzylidene)-2,5-dioxo-3-piperazinylidene)methylbenzamide], the inhibition at 20 µM under setting [1] amounted to 40%.

As to `CN(C)CCCOc1ccc(/C=c2\[nH]c(=O)/c(=C/c3ccc(C#N)cc3)[nH]c2=O)cc1` [Compound 5245], the IC50 under setting [3] was 1.8 µM.

`CN(C)CCOc1ccc(/C=c2\[nH]c(=O)/c(=C/c3ccccc3)[nH]c2=O)c(Cl)c1` [Compound 1951, (3Z,6Z)-3-Benzylidene-6-(2-chloro-4-(2-dimethylaminoethoxy)benzylidene)-2,5-piperazinedione]: the Degree of inhibition in PAI chromogenic substrate assay was 0% (6.25 μM); 1% (12.5 μM); 2% (25 μM); 23% (50 μM); 43% (100 μM).

Turning to `CC(=O)Nc1ccccc1/C=c1\[nH]c(=O)/c(=C/c2ccc(OCCCN(C)C)cc2)[nH]c1=O` [Compound 5259], the inhibition at 20 µM under setting [1] turned out to be 10%.

`CN(C)CCCOc1ccc(/C=c2\[nH]c(=O)/c(=C/c3cccc(Br)c3)[nH]c2=O)cc1` [Compound 5375, (3Z,6Z)-3-(3-Bromobenzylidene)-6-(4-(3-dimethylaminopropoxy)benzylidene)-2,5-piperazinedione]: the IC50 under setting [3] stood at 4.5 µM.

Consider `CN(C)CCOCc1ccc(/C=c2\[nH]c(=O)/c(=C/c3ccccc3Br)[nH]c2=O)cc1` [Compound 5070.HCl, (3Z,6Z)-3-(2-Bromobenzylidene)-6-(4-(2-dimethylaminoethoxymethyl)benzylidene)-2,5-piperazinedione], for which the inhibition at 20 µM under setting [1] came out at 6%. In addition, under setting [2], the inhibition at 50 µM is 6% and the inhibition at 100 µM is 40%.

`CN(C)CCCOc1ccc(/C=c2\[nH]c(=O)/c(=C/c3ccc(Cl)cc3)[nH]c2=O)cc1` [Compound 5233]: the inhibition at 20 µM under setting [1] stood at 47%. Further, under setting [2], the inhibition at 100 µM was determined as 50%. Also, the IC50 under setting [3] was found to be 2.5 µM.

On to `CN(C)CCCOc1ccc(/C=c2\[nH]c(=O)/c(=C/c3ccccc3C(F)(F)F)[nH]c2=O)cc1` [Compound 5251, (3Z,6Z)-6-(4-(3-Dimethylaminopropoxy)benzylidene)-3-(2-trifluoromethylbenzylidene)-2,5-piperazinedione], for which the inhibition at 100 µM under setting [2] turned out to be 71%. Besides, the concentration for half-maximal inhibition (IC50) under setting [3] stood at 67 µM.

As for `CN(C)CCCN(CCCN(C)C)Cc1ccc(/C=c2\[nH]c(=O)/c(=C/c3ccccc3)[nH]c2=O)cc1` [Compound 1981, (3Z,6Z)-3-Benzylidene-6-(4-bis(3-dimethylaminopropyl)aminomethylbenzylidene)-2,5-piperazinedione], the Degree of inhibition in PAI chromogenic substrate assay (12.5 μM) came out at 7%, the Degree of inhibition in PAI chromogenic substrate assay (25 μM) came out at 26%, the Degree of inhibition in PAI chromogenic substrate assay (50 μM) turned out to be 41% and the Degree of inhibition in PAI chromogenic substrate assay (100 μM) was 51%.

With `CN(C)CCOc1ccc(/C=c2\[nH]c(=O)/c(=C/c3ccccc3)[nH]c2=O)c(OCCN(C)C)c1` [Compound 1969], the inhibition at 6.25 µM (6.25 μM, read-out: Degree of inhibition in PAI chromogenic substrate assay) was 2%. Further, the inhibition at 12.5 µM (12.5 μM, read-out: Degree of inhibition in PAI chromogenic substrate assay) was found to be 0%. For the same molecule, the Degree of inhibition in PAI chromogenic substrate assay (25 μM) is 6%, the Degree of inhibition in PAI chromogenic substrate assay (50 μM) stood at 20% and the Degree of inhibition in PAI chromogenic substrate assay (100 μM) is 52%.

Turning to `CN(C)CCOc1ccc(/C=c2\[nH]c(=O)/c(=C/c3ccccc3)[nH]c2=O)cc1OCCN(C)C` [Compound 1949, (3Z,6Z)-3-Benzylidene-6-(3,4-di-(2-dimethylaminoethoxy)benzylidene)-2,5-piperazinedione], the Degree of inhibition in PAI chromogenic substrate assay reads like this: (6.25 μM) 1%; (12.5 μM) 1%; (25 μM) 1%; (50 μM) 1%; (100 μM) 3%.

As to `CN(C)CCCOc1ccc(/C=c2\[nH]c(=O)/c(=C/c3ccccc3Cl)[nH]c2=O)cc1` [Compound 5249, (3Z,6Z)-3-(2-Chlorobenzylidene)-6-(4-(3-dimethylaminopropoxy)benzylidene)-2,5-piperazinedione], under setting [1], the inhibition at 20 µM was 10%. For the same molecule, the inhibition at 100 µM under setting [2] worked out at 55%.

With `CN(C)CCCOc1ccc(/C=c2\[nH]c(=O)/c(=C/c3ccc(C(=O)NCCCCc4ccccc4)cc3)[nH]c2=O)cc1` [Compound 5347, N-(4-Phenylbutyl)-4-((3Z,6Z)-6-(4-(3-Dimethylaminopropoxy)benzylidene)-2,5-dioxo-3-piperazinylidene)methylbenzamide], the inhibition at 20 µM under setting [1] amounted to 39%.

Regarding `CN(C)CCCOc1ccc(/C=c2\[nH]c(=O)/c(=C/c3ccc(N)cc3)[nH]c2=O)cc1` [Compound 5260], the IC50 under setting [3] turned out to be 17 µM.

As to `CN(C)CCOc1ccc(/C=c2\[nH]c(=O)/c(=C/c3ccccc3)[nH]c2=O)cc1` [Compound 1954, (3Z,6Z)-6-Benzylidene-3-(4-(2-dimethylaminoethoxy)benzylidene)-2,5-piperazinedione], the Degree of inhibition in PAI chromogenic substrate assay came out at 37% (6.25 μM); 57% (12.5 μM); 67% (25 μM); 43% (50 μM); 16% (100 μM).

In the case of `COc1ccccc1/C=c1\[nH]c(=O)/c(=C/c2ccc(OCCCN(C)C)cc2)[nH]c1=O` [Compound 5241, (3Z,6Z)-6-(4-(3-Dimethylaminopropoxy)benzylidene)-3-(2-methoxybenzylidene)-2,5-piperazinedione], the inhibition at 20 µM under setting [1] came to 1%. Also, the inhibition at 100 µM under setting [2] came to 21%.

(Values after patent US5902812A, “Pharmaceutical piperazine compounds” (Xenova Limited, priority 1994, dated 1999).)
